Earlier results on 5 compounds are cited in patent publication US4202888A, “Readily enterally absorbable pharmaceutical compositions of cardiac glycosides and preparation thereof” (priority 1976, dated 1980).

The conditions of this data set: for enteral absorbability (in words): background statement; for per se enteral absorbability: without partial glycerides.

With k-strophanthin, the “enteral absorbability (in words)” value is reported as “insufficient enteral absorbability” and the “per se enteral absorbability” value is given as “less than 5%”. As for `C[C@H]1O[C@@H](O[C@H]2[C@@H](O)C[C@H](O[C@H]3[C@@H](O)C[C@H](O[C@H]4CC[C@@]5(C)[C@H](CC[C@@H]6[C@@H]5CC[C@]5(C)[C@@H](C7=CC(=O)OC7)CC[C@]65O)C4)O[C@@H]3C)O[C@@H]2C)C[C@H](O)[C@@H]1O` [digitoxin], the “enteral absorbability (in words)” value is given as “absorbable completely”. With `CC1OC(OC2CC(O)C3(CO)C4C(O)CC5(C)C(C6=CC(=O)OC6)CCC5(O)C4CCC3(O)C2)C(O)C(O)C1O` (stereo not drawn) [g-strophanthin], the “enteral absorbability (in words)” value is “insufficient enteral absorbability” and the “per se enteral absorbability” value is “less than 5%”. For the setting “between individuals”, the “factor of individual variation in enteral absorption” value is given as 10. As for `C[C@@H]1O[C@@H](O[C@@H]2C=C3CC[C@@H]4[C@H](CC[C@]5(C)[C@@H](c6ccc(=O)oc6)CC[C@]45O)[C@@]3(C)CC2)[C@H](O)[C@H](O)[C@H]1O` [proscillaridin], the “enteral absorbability (in words)” value is on record as “insufficient enteral absorbability” and the “per se enteral absorbability” value is on record as “less than 5%”. On to `C[C@H]1O[C@@H](O[C@H]2[C@@H](O)C[C@H](O[C@H]3[C@@H](O)C[C@H](O[C@H]4CC[C@@]5(C)[C@H](CC[C@@H]6[C@@H]5C[C@@H](O)[C@]5(C)[C@@H](C7=CC(=O)OC7)CC[C@]65O)C4)O[C@@H]3C)O[C@@H]2C)C[C@H](O)[C@@H]1O` [digoxin], for which the “enteral absorbability (in words)” value is given as “to at least an acceptable degree”.
